Assay results published in patent publication US6117849A, “S-(+)-adenosylmethionine and 3'-azido-2', 3'-dideoxy-nucleoside complexes as potent inhibitors of HIV-replication” (Symbio Herborn Group GmbH & Co., priority 1996, dated 2000).
“And” between values parts separate entries of the source, which are not always exact repeats. Equal entries are not always repeated. Where two headings read alike, the source gives them in different places.

Experiments:
[1] = target: T1, reverse transcriptase (RT) (HIV-1 M:B_HXB2R, UniProt P04585); assay: In vitro RT inhibition assay with F-dUP/F-dU or THF; assay type: biochemical; design: A2: RT in cord-blood lymphocyte cultures infected with HIV from an AIDS patient
HIV-1 isolate of HIV IIB = assay: HIV replication in de novo infected lymphocyte cultures, viral core protein p24 endpoint; assay type: cell-based, HIV-1 (in human peripheral blood lymphocytes)
Procedure: For this purpose, SAM has been tested in a dose response titration ranging from 1000 μg/mL to 10 μg/mL final concentrations for the ability to inhibit HIV replication in de novo infected cells. Endpoint in this assay was the quantitative determination of the concentration of the viral core protein p24 as described by Mueller et al. (Mueller, Ch., Moritz, R., Prigge, G., Weitzel, D., Kunze, R., Kage, A., Koettgen, E., Fresenius Z. Anal. Chem.,330, 352-353, 1988). […] The toxicity testing of cellular proliferation was performed according to J. Mosmann (J. Immunological Methods, 65, 55-63, 1983). […] All experiments were carried out in triplicate cultures, including those for the various concentrations of the molecular complexes tested.--The lymphocytes were infected with a standardized preparation of HIV-1 isolate of HIV IIB. The cells were sedimented by low speed centrifugation, the sediment resuspended in the assay buffer (standard), and the resuspended cells were inoculated by adjusting to the following conditions: 100 ng of viral core protein p24/mL and 3200 pg HIV RNA/mL, respectively. Normally 3×10^8 lymphocytes were suspended in 1 mL if the HIV inoculum, and incubated at 37° C. for 60 minutes. After washing the cells twice with 50 mL of culture medium the cells were resuspended at a concentration of 3×10^6 cells/mL in culture medium which contains 10 units/mL of human recombinant interleukin-2. 100 μL of this cell suspension were added to 100 μL of the pre-diluted solution of the compounds to be tested, without adding any salt or protein. The entire assay was cultivated in humidified atmosphere in the presence of 5% CO2 at 37° C. After the 4th day of infection the viral replication was determined in the lymphocyte cultures. The end point of the titration was the determination of the viral core protein p24 in the supernatant of each of the lymphocyte cultures. 150 μL of the supernatant were removed and transferred to a vial containing 50 μL/well SDS at a final concentration of 0.08% (w/w). The concentration of the synthesized p24 by the HIV infected cells was determined according to Mueller et al., using recombinant p24 as a standard for calibration.

[2] = AZT; cited from earlier work
[3] = in vivo; cited from earlier work
[4] = SAM and AZT levels in HIV-infected patients (plasma, CSF)
[5] = target: T1, reverse transcriptase (RT); assay type: biochemical; design: A2: RT in cord-blood lymphocyte cultures infected with HIV from an AIDS patient; settings: for Ki: RT
Procedure: The second in-vitro test uses the enzymatic activity of RT, testing the kinetic and inhibitory action of the molecular complexes. The cloning of the RT in biologically active form made it possible to have large quantities of the RT enzyme available for these studies (RT from Sigma, lot # R 9376).
The steady state reaction conditions for RT are chosen that approximate physiological conditions are met: pH 7.45 (37° C.), ionic strength of 150 mM, routinely a buffer was employed consisting of 50 mM TRIS-HCl, 100 mM KCl, 5 mM MgCl2, the addition of 10 μg/mL bovine serum albumin were included. […] The aforementioned precautions designed to avoid potential reduction of SAM in the presence of DTT are taken into accounts to preclude any distortions of the kinetic behavior of the RT enzyme in the presence of the various substrates e.g. as our molecular compounds. […] The enzyme concentrations of RT was approx. 20 nM, T-P (template-primer) […] and 25 μM of [^3 H]-dNTP (assay conditions are modified fro those of Mayunder et al., J. biol. Chem.,263, 15657, 1988). […] In case both parameters are effected to the same extent, then the inhibition is uncompetitive. In order to facilitate the difference between SAM kinetics and those for the molecular complexes we studied first SAM kinetics and subsequently the kinetics in the presence of the molecular complexes. […] Similar experiments have been carries out with dGTP.
The enzyme was assayed with 50 nM primer sites on poly (rA): oligo (dT), and variable concentrations of [^3 H] dTP as substrates in a reaction mixture as described above at pH 7.5 (37° C.).

in vitro = settings: t-lymphocyte cultures
Procedure: (§1) Viability of the T cells was determined by means of a tetrazolium salt (MTT) metabolic assay.--(see also: Schwartz, O., et al., AIDS Rcs. Hum. Retroviruses, 4 441-448, 1988).

[6] = target: T1, reverse transcriptase (RT); settings: read-out: inhibiting concentration, 50% of RT activity; tosylate-bis-sulfate salt, with DTT; cited from earlier work
[7] = target: T1, reverse transcriptase (RT); assay type: biochemical; design: A2: RT in cord-blood lymphocyte cultures infected with HIV from an AIDS patient; settings: no DTT
[8] = system: human peripheral blood lymphocytes; assay: Cell toxicity by proliferation test in lymphocyte cultures
Procedure: For this purpose, SAM has been tested in a dose response titration ranging from 1000 μg/mL to 10 μg/mL final concentrations for the ability to inhibit HIV replication in de novo infected cells. Endpoint in this assay was the quantitative determination of the concentration of the viral core protein p24 as described by Mueller et al. (Mueller, Ch., Moritz, R., Prigge, G., Weitzel, D., Kunze, R., Kage, A., Koettgen, E., Fresenius Z. Anal. Chem.,330, 352-353, 1988). […] The toxicity testing of cellular proliferation was performed according to J. Mosmann (J. Immunological Methods, 65, 55-63, 1983). […] All experiments were carried out in triplicate cultures, including those for the various concentrations of the molecular complexes tested.--The lymphocytes were infected with a standardized preparation of HIV-1 isolate of HIV IIB. The cells were sedimented by low speed centrifugation, the sediment resuspended in the assay buffer (standard), and the resuspended cells were inoculated by adjusting to the following conditions: 100 ng of viral core protein p24/mL and 3200 pg HIV RNA/mL, respectively. […] After the 4th day of infection the viral replication was determined in the lymphocyte cultures. […] The concentration of the synthesized p24 by the HIV infected cells was determined according to Mueller et al., using recombinant p24 as a standard for calibration.

HIV = HIV replication in T-lymphocyte cell cultures (cytotoxic effect and p24 production); assay type: cell-based
[9] = system: T-lymphocyte cell cultures; assay: in vitro; settings: for therapeutic index: in vitro, considering cytotoxicity
Procedure: as §1

[10] = Stability / half-life in human plasma (chiral HPLC, fluorescence)
Excerpt: In order to determine the stability of these complexes in physiological conditions, the half-life times of the compounds were estimated in human plasma after separation on a chiral column and using a HPLC apparatus applying, monitoring the fluorescence of both components at 310 nm (excitation at 278 nm) after complete separation of the two peaks.

IL-β, IL-2 = assay: Cytokine biosynthesis after stimulation of lymphocytes; assay type: cell-based; settings: after phytohemagglutination stimulation
[11] = Intracellular metabolism to the triphosphate; assay type: in vitro ADME
[12] = rapidly dried in vacuo, water-free
bone marrow stem cells = settings: vs AZT
[13] = system: mitochondrial DNA replication; settings: vs AZT
[14] = HIV replication, p24, standard conditions
[15] = addition of human serum albumin
[16] = 1 h, complex: 400 mg SAM equivalent 250 mg AZT
[17] = no DTT, pH 7.45-7.5, 37° C., read-out: KM

c1ncc2c(n1)NCCN2 [5,6,7,8-tetrahydropteridine (THF), 5,6,7,8-tetrahydropteridine]
effect on inhibition of RT [1]: no significant inhibition of the RT

Cc1cn([C@H]2C[C@H](N=[N+]=[N-])[C@@H](CO)O2)c(=O)[nH]c1=O [AZT, 3'-azido-2',3'-deoxythymidine]
inhibition of HIV replication (HIV-1 isolate of HIV IIB; FIG. 1, p24): inhibited HIV replication in a dose dependent response | plasma half-life [2]: 1 h | side effects upon prolonged administration [3]: peripheral neuropathological effects | toxicity at increased dose [3]: bone marrow toxicity | Cmax ([4]; human, plasma, 250 mg): 2500 ng/mL | kcat [5]: approx. 1.5 sect^-1

C[S+](CC[C@H](N)C(=O)O)C[C@H]1O[C@@H](n2cnc3c(N)ncnc32)[C@H](O)[C@@H]1O (stereo partly drawn) [SAM ts HSO4 H2 SO4]
selectivity ratio (in vitro): 2.4 | IC50 [6]: 250000 to 501000 nM | Km [5]: 0.51 ± 0.02 µM | kcat [5]: 0.333 s⁻¹ and 0.3 s⁻¹

[3H]C12CNc3nc(N)[nH]c(=O)c3N1CN(c1ccc(C(=O)N[C@@H](CCC(=O)O)C(=O)O)cc1)C2 (stereo partly drawn) [N^5, N^10-methylene-6-[^3 H]-THF]
effect on inhibition of RT [1]: no significant inhibition of the RT

3'-azido-2',3'-dideoxyuridine [SAM/AZU]
Km ([5]; read-out: KM): 0.69 ± 0.015 µM | kcat [7]: 0.035 s⁻¹

(+)-SAM-3'-azido-2',3'-dideoxythymidine complex [SAM/AZT]
inhibitory constant Ki(1), at 50% inhibition (HIV-1 isolate of HIV IIB; [14]): ≈ 0.9 ng/mL | inhibitory constant Ki(2), at 50% inhibition (HIV-1 isolate of HIV IIB; [14]): ≈ 12.5 μg/mL | Ki (first, low) (HIV-1 isolate of HIV IIB; [15]): 0.0005 to 0.0008 µg/mL | Ki (second, high) (HIV-1 isolate of HIV IIB; [15]): ~10 µg/mL | Ki (first, low) (HIV-1 isolate of HIV IIB; ionic strength 0.075 M): 0.0006 to 0.0008 µg/mL | Ki (second, high) (HIV-1 isolate of HIV IIB; ionic strength 0.075 M): 8 to 10 µg/mL | increase of the cell toxicity ([8]; SAM-AZT complex compared with SAM alone): approx. 35% | cell toxicity with respect to AZT alone ([8]; vs AZT alone): considerable of reduction of cell toxicity | maximum inhibition (HIV; inhibition of the cytotoxic effect): 100% | IC50 (HIV; p24 production, read-out: IC50, inhibition of p24 production): 10 nM | 50% cytotoxicity ([9]; MTT, as mass concentration of complex): ~15.5 µg/mL | CC50 ([9]; read-out: 50% cytotoxicity, MTT): 250000 nM | half-life of SAM ([10]; from AZT-SAM complex): more than 10 h | half-life of SAM, average ([10]; from AZT-SAM complex): 12 h | half-life of AZT ([10]; from the complex, depends on load): 2 to 3 h | cytokine biosynthesis (IL-β, IL-2) (IL-β, IL-2): enhanced significantly | accumulation / conversion to triphosphate [11]: does not accumulate, but being readily converted to the triphosphate derivative | hygroscopicity [12]: hygroscopic | toxicity for bone marrow stem cells (bone marrow stem cells): less toxic than AZT | toxicity/inhibition of mitochondrial DNA replication [13]: less toxic as well as inhibitory to mitochondrial DNA replication | AZT level (almost 50% of that in plasma) [4, 16]: 0.25 µg/mL | SAM level [4, 16]: 600 ng/mL | pharmacokinetic behaviour ([4]; HIV patients): lower elimination rate for SAM | dose reduction of AZT ([4]; administered as complex with SAM): approx. 30% | increase of SAM and AZT levels in CSF and plasma ([4]; approved dose 250 mg AZT at 4 h intervals): 25-30% | AZT level in plasma ([4]; complex: 400 mg SAM equivalent 250 mg AZT): 0.543 µg/mL

O=c1[nH]c(=O)n([C@H]2C[C@H](O)[C@@H](CO)O2)cc1F [F-dU]
effect on inhibition of RT [1]: no influence on the inhibition of RT

3'-azido-2',3'-dideoxyinosine [SAM/AZI]
Ki ([5]; no DTT): 130 ± 15 nM | Km ([5]; read-out: KM): 0.41 ± 0.03 µM | kcat [7]: 0.035 s⁻¹

3'-azido-2',3'-2'-fluorothymidine [F))/AZT (AZT (2']
therapeutic index [9]: 7.000 | Ki ([5]; no DTT): 100 ± 10 nM | Km [5, 17]: 0.5 ± 0.01 µM | kcat [7]: 0.0483 s⁻¹

C[S+](CC[C@H](N)C(=O)O)C[C@H]1O[C@@H](n2cnc3c(N)ncnc32)[C@H](O)[C@@H]1O (single isomer, unassigned) [SAM C1]
selectivity ratio (in vitro): 2.1 | Km [5]: 0.53 ± 0.02 µM | kcat [5]: 0.317 s⁻¹ and 0.25 s⁻¹

3'-azido-2',3'-dideoxyguanosine [SAM/AZG]
therapeutic index [9]: 5.700 | Ki ([5]; no DTT): 240 ± 10 nM | Km [5, 17]: 0.7 ± 0.02 µM | kcat [7]: 0.05 s⁻¹

Nc1ccn([C@H]2CC[C@@H](CO)O2)c(=O)n1 [ddC]
side effects upon prolonged administration [3]: peripheral neuropathological effects

3'-azido-2',3'-dideoxyadennine [SAM/AZA]
therapeutic index [9]: 4.500 | Ki ([5]; no DTT): 280 ± 20 nM | Km [5, 17]: 0.71 ± 0.02 µM | kcat [7]: 0.0283 s⁻¹
